Measurements published in patent publication US9266817B2, “Catecholamine derivatives for obesity and neurological disorders” (EMORY UNIVERSITY, priority 2009, dated 2016).

Columns and labels:
[1] = molecular target: T1, TrkB (Mus musculus, UniProt P15209, F616A); format: in vivo; conditions: L-DOPA 50 mg/kg, DOPS 100 mg/kg, 1NMPP1 50 μM
T1 construct: from tissue; host or cells: mouse brain
Protocol: The DOPS concentration was 20 mg/ml, the vitamin C concentration was 2 mg/ml, and the benserazide concentration was 5 mg/ml. The vitamin C prevents oxidation of the DOPS, and the benserazide is a peripheral inhibitor of AADC and restricts the production of NE from DOPS to the brain. The compounds were added to a tube, and 20 μl of 10 M HCl was added to each ml of DOPS solution. The appropriate amount of water was added to the tube, and then HCl was added to achieve the desired volume. For example, to make 1 mL of a DOPS solution, 20 mg DOPS, 2 mg vitamin C, and 5 mg benserazide were added to a tube, followed by 980 μL of water and 20 μL of 10 M HCl. The solution was vortexed until all DOPS was dissolved. The DOPS solution was injected subcutaneously in a volume of 50 μl/g of mouse. The appropriate amount of DOPS solution was pipetted into a clean tube, followed by the amount of 10 M NaOH required to exactly neutralize the HCl. The solution was then shaken. The amount of 10 M NaOH is the weight of the mouse in microliters. For example, for a 20 g mouse, pipet 1 ml of the DOPS solution is pipetted into a tube and 20 μL of 10 M NaOH is added. For a 30 g mouse, 1.5 mL of the DOPS solution is pipetted into a tube and 30 μl of 10 M NaOH is added. Two to four month-old TrkBF616A mice were pretreated with 1NMPP1 in drinking water (50 μM) 1 day before L-DOPA (50 mg/kg) or DOPS (100 mg/kg) intraperitoneal injection. At times of 2 hours and 5 hours after drug administration, the L-DOPA or DOPS-treated mice were sacrificed, respectively. The brain lysates were prepared and analyzed by immunoblotting against anti-phospho-TrkB Y816 and TrkA Y794 antibodies.
TrkB F616A mice were pretreated with 1NMPP1 (50 μM) before L-DOPA or DOPS administration.

[2] = test system: BDNF; experiment: Quantitative analysis of BDNF in mouse brain during drug treatment; format: in vivo, mice; conditions: during the drug treatment
[3] = test system: TrkB; format: in vivo
[4] = molecular target: T2, TrkB (Rattus norvegicus, UniProt Q63604); experiment: Immunoblotting of TrkB phosphorylation in primary cortical neurons treated with catecholamines; format: cell-based
T2 construct: endogenous in cells; host or cells: primary rat cortical and hippocampal neurons
Protocol: Primary cultured rat cortical neurons were prepared as follows. E17 rat pups were decapitated and cortex was extirpated, cross chopped and suspended by pipetting for separation in 5% fetal calf serum (FCS), 5% horse serum (HS) DMEM. The cell suspension was then centrifuged at 250×g for 5 min. This operation was repeated. Cells were seeded into polyethyleneimine-coated 10 cm^2 dishes and 12-well plates including coated-coverslips and incubated at 37° C. in 5% CO2/95% air. After 3 hours, the culture medium was changed to Neurobasal containing B-27 supplement (Invitrogen; Carlsbad, Calif.) and incubated for 4 days. For maintenance, half of the culture medium was changed to fresh Neurobasal/B27 in every 4 days. After 1 week, the dished cultured neurons were ready for use.
To explore whether monoamine neurotransmitters, including catecholamines (see, e.g., FIG. 1), could stimulate TrkB activation, hippocampal neurons were treated with 300 nM of catecholamines, serotonin, and melatonin for 30 min.

[5] = molecular target: T3, TrkA (Mus musculus, UniProt Q3UFB7); experiment: TrkA activation in mouse brain after DOPS (control); format: in vivo; conditions: wild-type and DBH -/- mice
T3 construct: from tissue; host or cells: mouse brain
Protocol: Mice lacking dopamine β-hydroxylase (DBH) are unable to synthesize noradrenaline (essential for mouse fetal development) or adrenaline and die in utero. Administration of DOPS, which can be converted to noradrenaline in the absence of DBH, rescued DBH −/− mice from dying. Mature DBH −/− mice can live without supplemental of DOPS. […] In wild-type control mice, DOPS induced TrkB activation in a time dependent manner with the maximal effect at 12 hours. In contrast, DOPS-triggered TrkB activation occurred at 1 hour, peaked at 5 hours, and decreased at 12 hours in DBH −/− mice. As a control, TrkA was not activated.

[6] = molecular target: TrkB (Homo sapiens, UniProt Q16620); experiment: TrkB activation by catecholamines in TrkB-transfected HEK293 cells pretreated with OCT3 inhibitor; format: cell-based; design: expressed in transfected cells; host or cells: HEK293; conditions: 2 μM, 30 minutes pretreatment, catecholamines 15 minutes
Protocol: HEK293 cells were transfected with TrkB and pretreated with the OCT3 inhibitor decynium (2 μM) for 30 minutes, followed by stimulation with catecholamines for 15 minutes. The cell lysates were monitored by immunoblotting with anti-p-TrkB-Y-816. […] An equal amount of TrkB was expressed in each sample (FIG. 22A, lower panel).

T1 sequence (P15209 32-821 F616A): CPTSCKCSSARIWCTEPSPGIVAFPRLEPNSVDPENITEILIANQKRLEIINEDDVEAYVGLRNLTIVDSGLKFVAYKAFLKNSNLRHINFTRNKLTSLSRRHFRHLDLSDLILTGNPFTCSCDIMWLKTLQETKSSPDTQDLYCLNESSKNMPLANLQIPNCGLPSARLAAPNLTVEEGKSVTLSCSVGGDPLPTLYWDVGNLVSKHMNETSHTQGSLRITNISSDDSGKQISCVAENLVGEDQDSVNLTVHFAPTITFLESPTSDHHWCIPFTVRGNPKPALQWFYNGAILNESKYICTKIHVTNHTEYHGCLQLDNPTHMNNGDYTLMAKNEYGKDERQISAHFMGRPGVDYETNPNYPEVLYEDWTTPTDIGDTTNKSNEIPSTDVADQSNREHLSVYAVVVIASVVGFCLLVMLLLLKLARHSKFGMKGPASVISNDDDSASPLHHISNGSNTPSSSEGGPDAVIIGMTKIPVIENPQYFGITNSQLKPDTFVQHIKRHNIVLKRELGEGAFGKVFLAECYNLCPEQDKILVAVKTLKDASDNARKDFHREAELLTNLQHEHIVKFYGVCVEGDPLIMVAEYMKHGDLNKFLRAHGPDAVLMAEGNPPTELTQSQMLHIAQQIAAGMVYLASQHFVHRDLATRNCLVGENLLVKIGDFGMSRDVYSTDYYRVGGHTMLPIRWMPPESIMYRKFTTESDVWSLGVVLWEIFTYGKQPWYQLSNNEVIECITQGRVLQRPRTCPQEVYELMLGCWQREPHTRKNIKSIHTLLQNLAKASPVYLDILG
T2 sequence (Q63604 32-821): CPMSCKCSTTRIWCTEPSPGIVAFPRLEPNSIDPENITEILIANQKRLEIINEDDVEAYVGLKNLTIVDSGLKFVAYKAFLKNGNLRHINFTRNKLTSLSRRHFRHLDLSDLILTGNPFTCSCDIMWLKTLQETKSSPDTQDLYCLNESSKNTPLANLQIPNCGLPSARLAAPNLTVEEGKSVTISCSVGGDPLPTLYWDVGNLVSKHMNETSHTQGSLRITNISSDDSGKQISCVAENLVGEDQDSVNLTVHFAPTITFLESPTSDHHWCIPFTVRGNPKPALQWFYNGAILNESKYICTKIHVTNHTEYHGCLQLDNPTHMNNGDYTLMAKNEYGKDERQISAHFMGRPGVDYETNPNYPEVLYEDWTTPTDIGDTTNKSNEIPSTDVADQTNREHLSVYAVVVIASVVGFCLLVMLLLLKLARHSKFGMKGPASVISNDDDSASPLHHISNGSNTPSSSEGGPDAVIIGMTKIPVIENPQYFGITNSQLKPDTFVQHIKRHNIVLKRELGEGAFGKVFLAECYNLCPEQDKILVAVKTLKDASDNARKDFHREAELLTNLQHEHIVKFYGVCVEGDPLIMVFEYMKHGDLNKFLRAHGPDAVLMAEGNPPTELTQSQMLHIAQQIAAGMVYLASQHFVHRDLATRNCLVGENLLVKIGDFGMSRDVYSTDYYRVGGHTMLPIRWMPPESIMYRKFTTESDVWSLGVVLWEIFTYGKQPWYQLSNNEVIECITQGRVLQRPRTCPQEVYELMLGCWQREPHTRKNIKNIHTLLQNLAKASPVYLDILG
T3 sequence (Q3UFB7 34-799): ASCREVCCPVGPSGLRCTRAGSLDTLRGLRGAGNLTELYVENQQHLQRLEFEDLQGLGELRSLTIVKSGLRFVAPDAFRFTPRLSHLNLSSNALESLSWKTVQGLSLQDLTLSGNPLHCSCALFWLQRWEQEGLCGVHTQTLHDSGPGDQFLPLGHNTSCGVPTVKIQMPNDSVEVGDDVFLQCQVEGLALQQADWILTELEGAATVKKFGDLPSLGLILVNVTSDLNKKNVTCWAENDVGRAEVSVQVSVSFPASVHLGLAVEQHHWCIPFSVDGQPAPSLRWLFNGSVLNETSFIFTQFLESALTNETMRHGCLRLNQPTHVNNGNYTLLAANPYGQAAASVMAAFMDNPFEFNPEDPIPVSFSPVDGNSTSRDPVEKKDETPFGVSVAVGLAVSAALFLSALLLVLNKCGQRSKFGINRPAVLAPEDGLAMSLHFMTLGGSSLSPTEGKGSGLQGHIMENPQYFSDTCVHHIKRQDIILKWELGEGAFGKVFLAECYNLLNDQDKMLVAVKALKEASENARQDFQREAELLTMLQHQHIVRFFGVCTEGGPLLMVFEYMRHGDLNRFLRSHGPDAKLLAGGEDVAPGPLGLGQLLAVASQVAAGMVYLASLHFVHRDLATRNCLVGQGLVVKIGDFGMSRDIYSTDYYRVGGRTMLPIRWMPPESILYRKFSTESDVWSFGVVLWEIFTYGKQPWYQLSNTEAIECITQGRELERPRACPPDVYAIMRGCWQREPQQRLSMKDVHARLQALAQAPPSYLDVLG
Chain of TrkB (Homo sapiens, UniProt Q16620) (Q16620 32-822, species assumed): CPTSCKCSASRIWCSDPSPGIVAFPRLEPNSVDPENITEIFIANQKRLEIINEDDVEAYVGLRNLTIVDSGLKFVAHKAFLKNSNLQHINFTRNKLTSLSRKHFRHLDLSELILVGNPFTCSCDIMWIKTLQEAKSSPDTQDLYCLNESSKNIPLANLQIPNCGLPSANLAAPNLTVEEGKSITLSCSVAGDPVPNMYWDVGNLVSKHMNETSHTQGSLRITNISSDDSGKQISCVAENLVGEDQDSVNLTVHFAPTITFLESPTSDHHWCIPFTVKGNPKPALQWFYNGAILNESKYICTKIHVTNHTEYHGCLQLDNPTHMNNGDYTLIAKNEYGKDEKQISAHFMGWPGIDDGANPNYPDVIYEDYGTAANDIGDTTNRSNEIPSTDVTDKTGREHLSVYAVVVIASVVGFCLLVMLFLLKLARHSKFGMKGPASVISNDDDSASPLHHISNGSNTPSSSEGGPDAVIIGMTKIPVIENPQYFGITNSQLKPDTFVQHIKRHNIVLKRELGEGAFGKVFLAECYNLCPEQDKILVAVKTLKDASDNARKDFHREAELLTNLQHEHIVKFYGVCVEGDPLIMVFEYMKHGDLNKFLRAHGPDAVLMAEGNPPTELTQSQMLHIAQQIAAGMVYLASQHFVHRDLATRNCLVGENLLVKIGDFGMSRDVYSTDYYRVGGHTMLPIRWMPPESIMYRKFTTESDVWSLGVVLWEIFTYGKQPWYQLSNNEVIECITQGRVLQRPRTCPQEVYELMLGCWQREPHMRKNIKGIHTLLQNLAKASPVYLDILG

Effect of OCT3 inhibitor on TrkB activation by catecholamines [6]	Compound	TrkB tyrosine phosphorylation/activation in mice [1]	BDNF in mouse brain [2]	TrkB activation in BDNF -/- cortex ([3]; BDNF conditional knockout mice, compared to vehicle control)	Time at which TrkB activation occurred ([3]; DBH -/- mice, intraperitoneal) [h]	Time at which TrkB activation peaked ([3]; DBH -/- mice, intraperitoneal) [h]	TrkB activation at 12 hours ([3]; DBH -/- mice, intraperitoneal)	Time of maximal effect on TrkB activation ([3]; wild-type control mice, intraperitoneal) [h]	TrkB activation in primary cultured neurons [4]	TrkA activation in mouse brain [5]
–	N[C@H](C(=O)O)[C@H](O)c1ccc(O)c(O)c1 [DOPS, dihydroxyphenylserine]	provoked evident TrkB activation	not significantly altered	strongly triggered TrkB activation	1	5	decreased	12	rapidly induced TrkB activation	not activated
failed to inhibit	CCN1/C(=C/c2ccc3ccccc3[n+]2CC)C=Cc2ccccc21.[I-] [decynium]	–	–	–	–	–	–	–	–	–
